Assay results published in US11357749B2, “Methods for treating neutropenia” (Enzychem Lifesciences Corporation, priority 2014, dated 2022).

B1: G-CSL: Granulocyte-colony stimulating factor, glycoprotein that stimulates hematopoietic precursor cells; 0.25 mpk i.p. in mice (protein, UniProt P09920 31-208, looked up)
Granulocyte …: VPLVTVSALPPSLPLPRSFLLKSLEQVRKIQASGSVLLEQLCATYKLCHPEELVLLGHSLGIPKASLSGCSSQALQQTQCLSQLHSGLCLYQGLLQALSGISPALAPTLDLLQLDVANFATTIWQQMENLGVAPTVQPTQSAMPAFTSAFQRRAGGVLAISYLQGFLETARLALHHLA

Columns and labels:
C3 [1] = assay: C3 expression (RT-PCR) in IL-4/TNF-α treated HMC-1 cells; format: cell-based, human; conditions: HMC-1 cells treated with IL-4 and TNF-α; PLAG 0.1 and 1 μg/mL
Protocol: A blood cell line, HMC-1 (human mast cell, American Type Culture Collection, ATCC, Rockville, Md.) is incubated and maintained at 37° C. under 5% CO2 humid conditions. The medium is IMDM (Life Technologies, Karlsruhe, Germany) containing 10% Fetal Calf Serum (FCS, HyClone, Logan, Utah), 2 mM […], 100 μg/ml penicillin, 100 μg/ml streptomycin (Life Technologies). The cultured HMC-1 cells (1×10^6 cell/ml) are pre-treated with 0.1 and 1 μg/mL concentration of PLAG, followed by treating with IL-4 (5 ng) and/or TNF-α (10 ng) to induce cellular activities.
The expressed C3 and its mRNA level change are observed by using RT-PCR (Reverse Transcriptase Polymerase Chain Reaction). The RT-PCR is carried out as follows: the total RNA is separated by the standard protocol and cDNA is synthesized using AccuScript High Fidelity 1st Strand cDNA Synthesis Kit (Stratagene) by the manufacturer's instructions. Two-step RT-PCR reaction is conducted using Oligo-dT primer and reverse transcriptase, pair of primer and Taq polymerase (Takara, Shiga, Japan). […] The product of PCR is separated using 1.5% agarose gel, dyed with ethidium bromide (EtBr), and visualized with Gel Doc 2000 UV trans-illuminator (Bio-Rad Laboratories, Hercules, Calif., USA), and the experimental data is analyzed using Quantity One software (Bio-Rad Laboratories).

C3 [2] = assay: C3 mRNA (RT-PCR) in HepG2 cells; format: cell-based, human; conditions: HepG2, 10 and 100 microgram/ml of S6I, compared with PLAG
Protocol: A liver cell line, HepG2 (American Type Culture Collection, ATCC, Rockville, Md.), is incubated and maintained at 37° C., 5% CO2 humid atmosphere in DMEM medium. When HepG2 cells, which are known to produce complement in culture, are treated with PLAG, the activity of complement is reduced effectively, as confirmed by RT-PCR of mRNA. In the RT-PCR, 5×10^5 number of HepG2 cells/ml are distributed into 12 well plates and induced C3 for 12 hours with 10% FCS. Then PLAG is added and further cultured for 2 hours. Cells are harvested and mRNA is isolated and RT-PCR is carried out with specific primer of C3; GAPDH is used as an internal control.

[3] = test system: white blood cells and neutrophils; assay: Cyclophosphamide-induced neutropenia in mice, G-CSF with or without PLAG; format: in vivo; conditions: mice, cyclophosphamide 100 mpk i.p. ten days; G-CSF 0.25 mpk i.p.; PLAG 25 mpk p.o.
Description: Mice receive cyclophosphamide (100 mpk, i.p.) for a period of ten days, with or without G-CSF (0.25 mpk, i.p.) or G-CSF (0.25 mpk, i.p.) plus PLAG (25 mpk, p.o.): […]

Molecule	expression of C3 (C3 [1])	C3 expression (RT-PCR) (C3 [2])	Neutrophils [3] [k/μl]	White blood cells (WBCs) [3] [k/μl]
NC(=O)c1cnc(NCCc2ccc(O)c(Cl)c2)nc1NCc1ccccc1 [S6I, reference compound]	suppresses expression of C3	comparable		
B1			4.36	5.37
